{"source": "patent US20080319055A1", "about": "“Cooling Compounds” (GIVAUDAN SA, priority 2005, published 2008)"}
{"test_system": "trained panel of 4 to 8 people", "test": "Cooling intensity by trained panel, isointensity method versus menthol", "type": "in vivo", "settings": "aqueous solutions tasted, compared to aqueous solution of reference menthol at 2 ppm", "protocol": "The cooling intensity of the compounds was determined by a trained panel of 4 to 8 people according to the isointensity method as described below.\nAqueous solutions of various concentrations of a chemical compound were prepared and tasted. The cooling intensity of each solution was compared to that of an aqueous solution of the reference compound at 2 ppm, namely menthol."}
{"compound": "CCC(CC)(CC)NC(=O)c1ccc2c(c1)OCO2", "note": "[Ex. 5L, N-(1,1-diethylpropyl)benzo[1,3]dioxole-5-carboxamide]", "rel. cooling intensity": 0.3}
{"compound": "CC(C)C(NC(=O)c1ccc2c(c1)OCO2)C(C)C", "note": "[Ex. 5H, N-(1-isopropyl-isobutyl)benzo[1,3]dioxole-5-carboxamide]", "rel. cooling intensity": 0.9}
{"compound": "CC(C)C(C)(NC(=O)c1ccc2c(c1)OCO2)C(C)C", "note": "[Ex. 5K, N-(1-methyl-1-isopropyl-isobutyl)benzo[1,3]dioxole-5-carboxamide]", "rel. cooling intensity": 0.9}
{"compound": "COc1ccc(C(=O)NC(C)(C(C)C)C(C)C)cc1", "note": "[Ex. 4, N-1-methyl-1-isopropylisobutyl anisamide]", "rel. cooling intensity": 1.1}
{"compound": "CC(C)C(C)(NC(=O)c1ccc(-c2ccccc2)cc1)C(C)C", "note": "[Ex. 5F, N-(1-methyl-1-isopropyl-isobutyl) biphenyl-4-carboxamide]", "rel. cooling intensity": 1.5}
{"compound": "COC(=O)c1ccc(C(=O)NC(C)(C(C)C)C(C)C)cc1", "note": "[Ex. 5C, N-(1-methyl-1-isopropyl-isobutyl) O-methylterephthalamate]", "rel. cooling intensity": 1.7}
{"compound": "CC1(C)C2CCC1(C)C(NC(=O)c1ccccc1)C2", "note": "(stereo not shown) [Ex. 5M, N-bornyl benzamide]", "rel. cooling intensity": 0.6}
{"compound": "COC(=O)c1ccc(C(=O)NC2CC(C)CCC2C(C)C)cc1", "note": "(stereo not shown) [Ex. 5D, N-(3-p-menthyl) O-methylterephthalamate]", "rel. cooling intensity": 2.5}
{"compound": "CCC(CC)(CC)NC(=O)c1ccc(-c2ccccc2)cc1", "note": "[Ex. 5E, N-(1,1-diethylpropyl)biphenyl-4-carboxamide]", "rel. cooling intensity": 1.2}
{"test_system": "mouth", "test": "Application in mouthwash, cooling sensation in the mouth", "type": "in vivo", "settings": "50 mL of 1% solution in alcohol per 1 liter mouthwash (also contains peppermint oil); 30 mL swished, gargled and spit out", "protocol": "All the ingredients were mixed. 30 mL of obtained solution was put in the mouth, swished around, gargled and spit out."}
{"compound": "COc1ccc(C(=O)NC(C)(C(C)C)C(C)C)cc1", "note": "[Ex. 4, N-1-methyl-1-isopropylisobutyl anisamide]", "cooling sensation in mouthwash": "pleasant cooling sensation was felt in every area of the mouth"}
